Results from patent publication US20050064524A1, “Population of cells utilizable for substance detection and methods and devices using same” (priority 2003, published 2005).

How the values were obtained:
U937 cells [1] = assay: Specificity of ROS probe DCFH-DA towards hydrogen peroxide and NO donor in labeled cells; assay type: cell-based; conditions: FIGS. 22a-b
Procedure: The pro-monocyte U937 cell line was used as cell culture model. Hydrogen peroxide was used as a source of ROS. Probe loading of cells was measured in bulk and at individual cell level. Probe concentration, loading time and cell washing were determined for the different ROS probes. The kinetics of ROS generation was measured in real time by monitoring sequentially the same individual cells. Photo toxicity induced by repeated excitations was checked. FIGS. 12-17, 18-19 and 20-21a-b show the ability of dihydrorhodamine 123 (DHR), dichlorodihydrofluorescein diacetate (DCFH-DA) and dihydroethidium (DHE), respectively, to detect ROS formation in U937 cells treated with hydrogen peroxide.
(§1) The specificity of DCFH-DA and DAF-2DA towards ROS and […] respectively, was tested.

U937 cells [2] = assay: Intracellular NO measurement with DAF-2DA probe in labeled cells; assay type: cell-based; conditions: for signal of cells labeled with DAF-2DA (NO probe): FIGS. 22a-b
Procedure: Fluorescent microscopy and imaging system—Olympus motorized upright epi-fluorescence BX51 microscope, equipped with motorized polarization filters for fluorescence polarization measurements was used. Cells were illuminated by a Mercury light source. The emitted fluorescence was imaged by CoolSNAP HQ monochrome CCD camera, or DVC-1312 (DVC Company, West Austin, Tex., USA) color camera. Digital image analysis of cellular fluorescence was performed by Image Pro plus software (Media Cybernetics. Inc. Silver Spring, Md.,USA).
Quantitative measurements of intracellular NO concentration in individual U937 cells were effected in response to incubation in the presence of the Diethylene triamine NONOate ([…]) donor (0.1-1 mM). The loading of cells with probe was measured in bulk at the individual cell level. Probe concentration loading time and cell washing were determined. The kinetic of NO generation was measured in real time by sequentially monitoring the same individual cells. Photo-toxicity induced by repeated excitations was checked and subtracted. Time response of NO generation in the presence or absence of DETA/NO donor (0.5 mM) in U937 cells labeled with DAF-2DA (10 μM, 15 min) is shown in FIG. 3. […] Quantitative measurements of intracellular NO levels in individual living cells labeled with DAF-2DA and treated with DETA/NO are shown in FIGS. 7a-b and 8a-b.
as §1

individual live cell = conditions: hydrogen peroxide stimulus, FIG. 27
Procedure: Measurement of intracellular ROS in live cells—The measurement of intracellular reactive oxygen species (ROS) levels was performed using the DHR123 (1-10 μM), DCFDA(1 μM) or DHE (2 μM) probes.
For probe loading, 100 μl of cells at a concentration of 1.52×10^6 cells/mL in PBS or in serum free media without phenol red were incubated in the presence of the various probes for 15 min at 37° C. and 5% CO2, and then washed twice in PBS and thereafter exposed to either LPC (10-20 μM), MTX (50 nM) or H2O2 (10-500 μM).

SMILES | signal of cells labeled with DCFH-DA (ROS probe) (U937 cells [1]) | intracellular NO generation in U937 cells in response to donor (U937 cells [2]; U937 cells labeled with DAF-2DA (10 μM, 15 min), donor 0.1-1 mM) | signal of cells labeled with DAF-2DA (NO probe) (U937 cells [2]) | temporal relationship between ROS generation (DHR) and onset of changes in mitochondrial membrane potential (TMRM) (individual live cell)
NCCN(CCN)/[N+]([O-])=N/O [DETA/NO, Diethylene triamine NONOate] | only a minor response | accumulate NO | strong signal | –
OO [hydrogen peroxide] | strong and quantifiable signal | – | background signal | Hyperpolarization of mitochondrial membrane potential preceded the increase in ROS level
